This note sets out measurements from patent publication US20220363649A1, “ORGANIC COMPOUNDS” (Rutgers, The State University of New Jersey, priority 2018, published 2022).

For data set [1], the system named is Sprague-Dawley rats. Description: Paclitaxel-induced cold hyperalgesia model in rats. It counts as in vivo, rat. The note with it: i.p. Here is the method:
(§1) Male Sprague-Dawley rats weighing 240+20 grams were employed. Paclitaxel (brand name TAXOL®, 2 mg/kg) is injected intraperitoneally (i.p.) on days 1, 3, 5 and 7 with a total cumulative dose of 8 mg/kg. During the course of the study, the animals were housed individually under constant temperature, humidity and a 12-hour light-dark cycle.
(§2) Test articles, vehicle and gabapentin were administered intraperitoneally on Days 14 or 21.
Cold hyperalgesia was assessed by the […] and measured prior to Paclitaxel injections (Day 0) and test article administration (Days 13 or 20) and at 0.5 hour after dosing of vehicle or test articles on Days 14 or 21. The animals were randomized to each groups based on pre-dose cold hyperalgesia values (Days 13 or 20). Test rat was placed in 2.5 cm depth of a 0-2° C. ice water bath in a Plexiglas arena 32×32 cm×27 cm high. Withdrawal latency of the left paw was recorded and averaged twice for cold hyperalgesia assessment. A 20 sec cut time was employed.

For data set [2], the system named is Sprague-Dawley rats. In words: Rat rotarod test (motor incoordination). Format: in vivo. The conditions noted are these: i.p., male Sprague-Dawley rats. Here is the method: Groups of 6 pre-selected male (Sprague-Dawley) rats weighing 180±20 g were included to the study motor coordination. Rats were trained on a rod at a continuous accelerating speed from 4 to 30 rpm/min during a time period of 4 minutes for at least 3 times before the study. Rats were randomly assigned to different groups with similar baseline.
Vehicle and test articles were administered by intraperitoneal (i.p.) injection. The rats were placed on the accelerating rotarod at 30, 60, 90 and 120 min post dosing, and the time (seconds) the rat remained on the rotarod was recorded.

In the next data set the test system is CD-1 mice. Description: Mouse tail flick test, potentiation of morphine analgesia. It counts as in vivo. The conditions noted are these: mouse model of acute pain, n=8, i.p.; morphine SC.
The target of the next data set is T1, S1R (Cavia porcellus, UniProt Q60492).
T1 construct: performed using Guinea pig whole brain according to the protocol previously reported; from tissue; host or cells: guinea pig whole brain membrane preparations
In words: S1R radiolabeled binding assay, guinea pig whole brain, [3H]-pentazocine. The conditions noted are these: guinea pig brain membranes (Compounds 1-9); read-out: S1R Ki. Here is the method:
Following 1 h incubation at 25° C., the binding assay was terminated by addition of cold buffer. The mixture was then filtered through Whatman GF/B filters and washed with cold buffer. Radioactivity was identified using the liquid scintillation counter.
Receptor binding data were analyzed by nonlinear regression of saturation and competition curves using the GraphPad Prism 7.0 software (GraphPad Software, La Jolla, Calif.).
(§3) Radiolabeled binding assays were conducted using two different species.

Data set [3] has as its system Sprague-Dawley rats. Description: STZ-induced mechanical allodynia model in diabetic rats. The conditions noted are these: i.p., von Frey. Format: in vivo, rat. Here is the method: (§4) Male Sprague-Dawley rats weighing 225-250 grams were employed. Streptozotocin (STZ, 50 mg/kg) freshly dissolved in 0.9% sterile saline was injected intraperitoneally on day 0. Three days later, diabetes was confirmed by existence of blood glucose >350 mg/dL as measured by glucometer. Animal health was monitored biweekly for 14 days, at which point mechanical allodynia and thermal hyperalgesia were measured and confirmed. During the course of the study, the animals were housed individually under constant temperature, humidity and a 12-hour light-dark cycle. The animals were tested prior to study inclusion for mechanical allodynia and thermal hyperalgesia.
(§5) The behavioral assessments include mechanical allodynia and thermal hyperalgesia. Test articles, vehicle and gabapentin were administered intraperitoneally on Days 14 or 21.
Mechanical allodynia was assessed by the manual von Frey test and measured prior to STZ injections (Day 0). The animals were then randomized to each groups based on pre-dose mechanical allodynia values (Day 13 and Day 20). The mechanical allodynia test was performed again at 0.5 and 1.5 hours after vehicle, test article or gabapentin administration on Day 14. […] Mechanical threshold (50% g threshold) was assessed using the up- and down-method following the procedure described by Chaplan, et al., 1994, J Neurosci Methods 53:55-63).

For data set [4], the system named is Sprague-Dawley rats. In words: STZ-induced thermal hyperalgesia model in diabetic rats. It counts as in vivo, rat. The conditions noted are these: i.p. The protocol: as §4, §5
Thermal hyperalgesia: The animals were tested prior to study inclusion for thermal hyperalgesia on day 13 and Day 20. Thermal hyperalgesia was measured at 1 and 2 hours after dosing of vehicle or test article on Day 14 and Day 21 by using the IITC Model-336G (IITC INC. USA) apparatus. Each rat was placed within a plastic box atop a glass floor for 20 to 30 minutes. A light beam under the floor was aimed at the plantar surface of the left hind paw. The time was measured automatically when the paw was withdrawn away from the thermal stimulus. […]

Data set [5] has as its system Sprague-Dawley rats. Description: Paclitaxel-induced mechanical allodynia model in rats. It counts as in vivo, rat. The note with it: i.p., von Frey. Here is the method: as §1, §2
Mechanical allodynia was assessed by the manual von Frey test and measured prior to Paclitaxel injections (Day 0) and test article administration (Days 13 or 20) and at 0.5 hour after dosing of vehicle or test articles on Days 14 or 21. The animals were randomized to each groups based on pre-dose mechanical allodynia values (Days 13 or 20). The animals were given 20 to 30 minutes to acclimatize prior to testing. The paw was touched with a series of 8 manual von Frey monofilaments with logarithmically incremental stiffness [3.61 (0.4 g), 3.84 (0.6 g), 4.08 (1.0 g), 4.31 (2.0 g), 4.56 (4.0 g), 4.74 (6.0 g), 4.93 (8.0 g), and 5.18 (15.0 g)]. […] Mechanical threshold (50% g threshold) was assessed using the up- and down-method following the procedure described by Chaplan, et al., 1994, J Neurosci Methods 53:55-63.

The subject of data set [6] is Sprague-Dawley rats. In words: Rat formalin test. Format: in vivo. The conditions noted are these: 20 and 40 mg/kg, i.p., hind paw licking time. The protocol: One day after the rotarod test, vehicle and test articles were administered intraperitoneally again to groups of 6 Sprague-Dawley male rats weighting 180±20 g, 30 minutes prior to sub-plantar injection of formalin (0.05 ml, 2% solution). The hind paw licking time was recorded during a 0-35 min period at 5-min intervals after formalin challenge as a measure of analgesic activity of the test compound.

The test system of data set [7] is Sprague Dawley rats. Description: Spinal nerve ligation (SNL) Chung model in rats, thermal hyperalgesia. The conditions noted are these: two doses, Hargreaves method. It counts as in vivo, rat. Here is the method: (§6) Groups of 6 male Sprague Dawley rats weighing 160-200 grams were used. Prior to surgery and post-operatively, the animals were housed socially under constant temperature, humidity, and a 12-hour light-dark cycle. Following acclimation to the animal colony for 7 days, the rats were tested for mechanical allodynia and thermal hyperalgesia for baseline (pre-dose) values on Day −1. On Day 0, the animals were anesthetized with pentobarbital (50 mg/kg, i.p.). The left paraspinal muscles were separated from the spinous processes (L4-S2) and the L6-S1 facet joint was nipped. The transverse process of L6 was removed to allow for identifying the location of the L5 and L6 spinal nerves. The left L5-L6 spinal nerves were isolated and tightly ligated with 6.0 silk sutures. The rats are allowed to recover for 13 days.
Following a four (4) day wash out “period”, the rats were tested in the thermal hyperalgesia test and randomized to balance treatment groups. On Day 19, the rats were administered vehicle, Compound 68 at two doses, or gabapentin 50 mg/kg, IP. At 15 and 75 minutes post-dose the thermal hyperalgesia is tested again.
Thermal hyperalgesia: Thermal hyperalgesia is measured by the Hargreaves method. […] The time is measured automatically when the paw is withdrawn away from the thermal stimulus. […]

In data set [8] the test system is Sprague Dawley rats. Description: Spinal nerve ligation (SNL) Chung model in rats, mechanical allodynia. Format: in vivo, rat. The conditions noted are these: two doses, von Frey. The protocol: as §6
Rats were tested for mechanical allodynia and thermal hyperalgesia following acclimation on Day −1 for baseline (pre-dose) values. Following the recovery period, the rats were tested to verify the mechanical allodynia on Day 13. […]
Mechanical allodynia: The mechanical allodynia is assessed by the manual von Frey test (Chaplan up/down method using von Frey filaments on the plantar surface of the CFA injected paw). […] Mechanical threshold (50% g threshold) is assessed using the up- and down-method following the procedure described by Chaplan (Chaplan et al., 1994, J Neurosci Methods 53:55-63).

For a further data set, the target named is T2, human S2R (Homo sapiens, UniProt Q5BJF2).
T2 construct: performed using Jurkat cell line Clone E6-1 cells with 0.025 μM; endogenous in cells; host or cells: Jurkat Clone E6-1 cell membranes
In words: Human S2R radiolabeled binding assay, Jurkat Clone E6-1 cell membranes, [3H] DTG. The conditions noted are these: human membranes (Compounds 10-76). The protocol:
The radiolabeled binding assay of the human S1R and S2R were performed using human jurkat cell membranes according to the protocol previously reported (Ganapathy, et al., 1999, J. Pharmacol. Exp. Ther. 289:251-60).
DTG as radioligand. […] The cells were incubated in RPMI 1640 Medium with 10% FBS, 100 U/ml penicillin and […] streptomycin. After incubation, the cells were suspended in 5 mM potassium phosphate buffer (pH=7.6). The membrane protein concentration was controlled at 5 mg/mL. The collected membrane protein was incubated with ligands in potassium phosphate buffer for 1 hour at room temperature and terminated by adding ice-cold buffer. Then the mixture is filtered with 0.7 μm syringe filter and washed three times. The radioactivity is determined by liquid scintillation spectrometry.
Radiolabeled binding assays were conducted using two different species. Compounds 1-9 were assayed using guinea pig brain membranes for the binding assays. Compounds 10-76 were assayed using human brain membranes for the binding assays.

Another data set deals with T3, human S1R (Homo sapiens, UniProt Q99720).
T3 construct: experimentally determined in human jurkat cell membranes using 15.0 nM; endogenous in cells; host or cells: human Jurkat cell membranes
In words: Human S1R radiolabeled binding assay, human jurkat cell membranes, [3H]-pentazocine. The conditions noted are these: human membranes (Compounds 10-76). The protocol:
The binding process was terminated by addition of cold buffer. Then, the mixture was filtered and washed with cold buffer. Radioactivity was identified using the TopCount NTX liquid scintillation counter (PerkinElmer, Waltham, Mass.).
as §3

Molecules are shown by their SMILES.

T1 sequence (Q60492 whole entry): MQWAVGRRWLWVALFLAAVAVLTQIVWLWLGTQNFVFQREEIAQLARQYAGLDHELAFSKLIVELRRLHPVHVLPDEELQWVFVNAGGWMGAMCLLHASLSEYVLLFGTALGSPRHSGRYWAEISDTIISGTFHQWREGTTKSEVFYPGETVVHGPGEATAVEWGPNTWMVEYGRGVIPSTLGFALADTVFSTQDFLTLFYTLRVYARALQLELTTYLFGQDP
T3 sequence (Q99720 whole entry): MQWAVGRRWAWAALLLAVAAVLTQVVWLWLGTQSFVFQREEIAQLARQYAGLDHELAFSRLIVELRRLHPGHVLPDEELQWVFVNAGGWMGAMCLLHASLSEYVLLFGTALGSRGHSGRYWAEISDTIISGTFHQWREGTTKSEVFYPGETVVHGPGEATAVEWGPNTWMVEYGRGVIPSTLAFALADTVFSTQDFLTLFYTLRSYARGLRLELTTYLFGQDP
T2 sequence (Q5BJF2 whole entry): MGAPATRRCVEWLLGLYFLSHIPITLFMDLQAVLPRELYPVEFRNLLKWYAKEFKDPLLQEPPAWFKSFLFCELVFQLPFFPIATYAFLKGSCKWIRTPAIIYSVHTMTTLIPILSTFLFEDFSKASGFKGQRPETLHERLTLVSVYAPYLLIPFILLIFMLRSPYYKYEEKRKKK
Description for CD-1 mice: Male young CD-1 mice (at the age of 7-8 weeks) were used for this study. Tail flick latency was determined using a lamp device (design derived from D'Amour & Smith, 1941, J. Pharmacol. Exp. Ther. 72(1):74-79). The behavioral endpoint was defined as a flick of the tail out of the path of the light. The intensity of the light was adjusted to provide a baseline response time of approximately 2-4 seconds. The light beam was focused approximately 4 cm from the tip of the tail. A cut off time of 20 seconds was used to prevent tissue damage. Mice received a single intra-peritoneal (IP) injection of either vehicle (saline) or test substance at appropriate doses followed immediately by a single sub-cutaneous (SC) administration of saline or Morphine at the appropriate dose for each group. Thirty minutes after the SC administration, the animals were gently restrained in a manner which allowed access to the tail and positioned beneath a light beam (D'Amour & Smith, 1941, J Pharmacol Exp Ther 72(1):74-79) with the tail aligned for measurement at approximately 4 cm from tail tip. The lamp device automatically timed each tail flick response once the tail was flicked away from the light beam by a sensor beneath the platform.

With `Cn1nc(CN2CCCC2)nc1-c1ccc(C(C)(C)C)cc1` [Compound 8, 5-(4-(tert-butyl)phenyl)-1-methyl-3-(pyrrolidin-1-ylmethyl)-1H-1,2,4-triazole], the “analgesic activity, Paclitaxel-induced cold hyperalgesia” value with Sprague-Dawley rats [1] is reported as “exhibits analgesic activity”. The “motor incoordination effect in rat rotarod test” value was “No motor incoordination effect” in the data set on Sprague-Dawley rats [2] (20 mg/kg); “very slight and temporary motor incoordination effect” with Sprague-Dawley rats [2] (40 mg/kg, t=60 min). Also, the “potentiation of morphine's analgesia, Tail Flick Test” value with CD-1 mice is on record as “potentiates morphine's analgesia”. Moreover, the Ki on S1R was determined as 2.28 nM. The “analgesic activity, STZ-induced mechanical allodynia” value in the data set on Sprague-Dawley rats [3] is given as “exhibits analgesic activity”. For the same molecule, the “analgesic activity, STZ-induced thermal hyperalgesia” value with Sprague-Dawley rats [4] was “exhibits analgesic activity”. The “analgesic activity, Paclitaxel-induced mechanical allodynia” value with Sprague-Dawley rats [5] is listed as “exhibits analgesic activity”. The “analgesic activity in rat formalin test” value in the data set on Sprague-Dawley rats [6] is “dose-dependent analgesic activity”.
Turning to `CC(C)n1nc(CN2CCC3(CC3)C2)nc1-c1ccc(C(C)(C)C)cc1` [Compound 68, 5-((5-(4-(tert-butyl)phenyl)-1-isopropyl-1H-1,2,4-triazol-3-yl)methyl)-5-azaspiro[2.4]heptane], in the data set with Sprague Dawley rats [7], the “analgesic activity, thermal hyperalgesia in SNL Chung model” value is “exhibits analgesic activity”. Also, the “analgesic activity, mechanical allodynia in SNL Chung model” value in the data set on Sprague Dawley rats [8] is reported as “exhibits analgesic activity”. Also, the results for the Ki at human S2R and on human S1R were 360 nM and 0.75 nM, respectively.
